These results are taken from patent US10660965B2, “Methods of enhancing drug delivery and effectiveness of therapeutic agents” (priority 2010, dated 2020).

The subject of this assay is Patient-derived low passage pancreatic tumor xenografts. Nature of the assay: Tumor regression in patient-derived pancreatic tumor xenografts. The assay is classed as in vivo, nude mice. The conditions noted are these: 11 xenograft cases; ABI 30 mg/kg i.v. daily x5, GEM 100 mg/kg i.p. twice a week for 4 weeks. As to the method: Eleven Patient-derived low passage pancreatic tumor xenografts were implanted (s.c) in nude mice. Mice with tumor size of ˜200 mm3 were randomized to four treatment groups (7-10 tumors/group) and treated with 1) Vehicle; 2) Abraxane® (ABI) 30 mg/kg once daily i.v for five consecutive days; 3) Gemcitabine (GEM) 100 mg/kg twice a week for 4 weeks i.p and 4) GEM+ABI in the above mentioned dose and frequency for 4 weeks. Tumor size was measured twice per week using a digital caliper. Number of tumors that regressed more than 50% of its initial size in each tumor xenografts were noted. Extent of stromal desmoplasia and endothelial cell content in control and treated xenografts were determined by Masson's Trichrome staining, IHC and qRTPCR.

For the compound `Nc1ccn([C@@H]2O[C@H](CO)[C@@H](O)C2(F)F)c(=O)n1` [GEM, gemcitabine], the “cases that produced >50% regression of tumor size” value is 2 of 11.
